Publication PMC4648258 (ACS infectious diseases, 2015)
In brackets after ≈: the same amount, converted by molar mass.

Key:
[1] = test system: M. tuberculosis rKM (ATCC 35827); experiment: microbe, parasite or virus in culture; type: cell-based, Mycobacterium tuberculosis
[2] = test system: M. tuberculosis rCS (cycloserine; ATCC35826); experiment: microbe, parasite or virus in culture; type: cell-based; settings: Mycobacterium tuberculosis
[3] = test system: M. tuberculosis rRMP (ATCC 35838); experiment: microbe, parasite or virus in culture; type: cell-based, Mycobacterium tuberculosis
[4] = test system: M. tuberculosis rSM (ATCC 35820); experiment: microbe, parasite or virus in culture; type: cell-based, Mycobacterium tuberculosis
[5] = test system: M. tuberculosis rINH (ATCC 35822); experiment: microbe, parasite or virus in culture; type: cell-based, Mycobacterium tuberculosis
[6] = test system: M. tuberculosis thyA overexpression mutant; type: cell-based
[7] = test system: M. tuberculosis thyX overexpression mutant; type: cell-based
[8] = Mycobacterium tuberculosis, ATCC35827
[9] = Mycobacterium tuberculosis, ATCC35838
[10] = Mycobacterium tuberculosis, ATCC35820
[11] = Mycobacterium tuberculosis, ATCC35822

SMILES	MIC [1, 8] [µg/mL]	MIC [2] [µg/mL]	MIC [3, 9] [µg/mL]	MIC [4, 10] [µg/mL]	MIC [5, 11] [µg/mL]	MIC ([1]; MABA, rKM strain) [µg/mL]	MIC ([4]; MABA, rSM strain) [µg/mL]	MIC ([5]; MABA, rINH strain) [µg/mL]	MIC differential versus H37Rv wild-type [6]	MIC differential versus H37Rv wild-type [7]	MIC ([3]; MABA, rRMP strain) [µg/mL]
NNC(=O)c1ccncc1 [INH, isoniazid]	0.03 (≈ 0.219 µM)	0.01 (≈ 0.0729 µM)	0.02 (≈ 0.146 µM)	0.02 (≈ 0.146 µM)	> 2						
O=[N+]([O-])c1cn2c(n1)OC[C@@H](OCc1ccc(OC(F)(F)F)cc1)C2 [PA824]	0.19 (≈ 0.529 µM)		0.03 (≈ 0.0835 µM)	0.11 (≈ 0.306 µM)	0.03 (≈ 0.0835 µM)						
NC[C@H]1O[C@H](O[C@H]2[C@H](O)[C@@H](O[C@H]3O[C@H](CO)[C@@H](O)[C@H](N)[C@H]3O)[C@H](N)C[C@@H]2N)[C@H](O)[C@@H](O)[C@@H]1O [KM, kanamycin]						>2.00	0.95 (≈ 1.96 µM)	0.95 (≈ 1.96 µM)			
[H]/N=C(/N)N[C@H]1[C@H](O)[C@@H](O)[C@H](O[C@@H]2O[C@@H](C)[C@](O)(C=O)[C@H]2O[C@@H]2O[C@@H](CO)[C@H](O)[C@@H](O)[C@@H]2NC)[C@@H](N/C(N)=N\[H])[C@@H]1O [SM, streptomycin]	1.2 (≈ 2.06 µM)			> 2	0.46 (≈ 0.791 µM)						
CO[C@H]1/C=C/O[C@@]2(C)Oc3c(C)c(O)c4c(O)c(c(/C=N/N5CCN(C)CC5)c(O)c4c3C2=O)NC(=O)/C(C)=C\C=C\[C@H](C)[C@H](O)[C@@H](C)[C@@H](O)[C@@H](C)[C@H](OC(C)=O)[C@@H]1C [RMP, rifampicin]	< 0.01	< 0.01	> 2	0.03 (≈ 0.0365 µM)	0.01 (≈ 0.0122 µM)						
CCCc1c2c([nH]c(=O)c1C)C(=O)c1[nH]c(=O)c(C)c(CCC)c1C2=O [Compound 3, diazaquinomycin A]						0.06 (≈ 0.169 µM)	0.17 (≈ 0.48 µM)	0.13 (≈ 0.367 µM)	did not observe a significant differential in the MIC	did not observe a significant differential in the MIC	0.27 (≈ 0.762 µM)
